Molecules are shown by their SMILES. A value given as a limit tells only on which side of the number the result lay.

As usually defined, the Ki is a measure of affinity in units of concentration, obtained from inhibition or displacement. A low value points to tighter binding.

The assay deals with Sigma non-opioid intracellular receptor 1 (Cavia porcellus, UniProt Q60492).
Sigma non-opioid intracellular receptor 1, sequence (Q60492 whole entry): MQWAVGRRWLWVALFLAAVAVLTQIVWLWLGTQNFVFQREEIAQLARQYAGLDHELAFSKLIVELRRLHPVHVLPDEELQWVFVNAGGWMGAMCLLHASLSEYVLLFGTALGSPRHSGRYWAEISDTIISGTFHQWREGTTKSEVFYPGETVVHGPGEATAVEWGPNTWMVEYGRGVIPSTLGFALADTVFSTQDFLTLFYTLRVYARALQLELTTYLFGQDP

Compound `Clc1cccc(Cl)c1N=C1NCCN1` [2-(2,6-dichloroanilino)-2-imidazoline] had a Ki above 10000 nM.
`CN(C)CCC=C1c2ccccc2CCc2ccccc21` returned an inhibitory constant (Ki) of 300 nM.
Regarding `CNCCC=C1c2ccccc2CCc2ccccc21` [NORTRIPTYLINE], the Ki is 2000 nM.
In turn, `CN(C)CCCN1c2ccccc2Sc2ccc(C(F)(F)F)cc21` [TRIFLUPROMAZINE] showed a Ki of 605 nM.
The compound `CN(C)CCCN1c2ccccc2Sc2ccc(Cl)cc21` [[3-(2-Chloro-phenothiazin-10-yl)-propyl]-dimethyl-amine(Chlorpromazine)] had a Ki of 1470 nM.
Consider `CN(C)CCCN1c2ccccc2CCc2ccccc21`, for which the affinity corresponds to a Ki of 520 nM.
